tested on: K. pneumoniae; assay: Antimicrobial activity (MIC) of polymers and antibiotics individually; format: cell-based; conditions: Klebsiella pneumoniae, agents individually
Description: As depicted in FIGS. 1-5, “m” can represent a number that is, for example, greater than or equal to 5 and less than or equal to 30, and/or “n” can represent a number that is, for example, greater than or equal to 0 and less than or equal to 25. Additionally, the “*” can represent: one or more repetitions of all and/or parts of the structures shown, one or more hydrogens, an alkyl group, an aryl group, a combination thereof, and/or the like. Unless otherwise stated, materials utilized to facilitate the experiments, tables, charts, diagrams, and/or the like described herein can be acquired from the following sources. The bacteria Staphylococcus aureus (“S. aureus”, ATCC 29737), Escherichia coli (“E. coli”, ATCC 25922), Pseudomonas aeruginosa (“P. aeruginosa”, ATCC 9027), Candida albicans (“C. albicans”, ATCC 10231), and/or Klebsiella pneumoniae (“K. pneumoniae”, ATCC700603) were acquired from American Type Culture Collection (“ATCC”).
Further, Table 1, presented below, can depict the antimicrobial activity of the guanidinium functionalized polylysine polymers and/or antibiotics individually with regards to K. pneumoniae.

SMILES	MIC [µg/mL]
CO/N=C(\C(=O)N[C@@H]1C(=O)N2C(C(=O)O)=C(CSC(=O)c3ccco3)CS[C@H]12)c1csc(N)n1 [Ceftiofur]	4 to 8
CN(C)[C@@H]1C(O)=C(C(N)=O)C(=O)[C@@]2(O)C(O)=C3C(=O)c4c(O)ccc(Cl)c4[C@@](C)(O)[C@H]3C[C@@H]12 [Chlortetracycline]	15.6
CCN1CCN(c2cc3c(cc2F)c(=O)c(C(=O)O)cn3C2CC2)CC1 [Enrofloxacin]	1
CO[C@H]1/C=C/O[C@@]2(C)Oc3c(C)c(O)c4c(O)c(c(/C=N/N5CCN(C)CC5)c(O)c4c3C2=O)NC(=O)/C(C)=C\C=C\[C@H](C)[C@H](O)[C@@H](C)[C@@H](O)[C@@H](C)[C@H](OC(C)=O)[C@@H]1C [Rifampicin]	31.3
